Experimental data published in publication PMC7582476, “Discovery of Novel Indoleamine 2,3-Dioxygenase 1 (IDO1) and Histone Deacetylase 1 (HDAC1) Dual Inhibitors Derived from the Natural Product Saprorthoquinone” (Molecules, 2020).

Key:
IDO1 = target: T1, IDO1 (Homo sapiens, UniProt P14902); assay: IDO1 enzymatic assay; assay type: biochemical; conditions: for inhibition at 10 µM: Tables 2 and 3, read-out: IDO1 % Inhibition at 10 μM (converted); for IC50: mean ± SD of at least two independent assays
T1 construct: No. 20160706
Experimental: (1) Prepare 100× compound of the final desired highest inhibitor concentration in reaction by 100% DMSO. For example, if compounds test at 10 μM, then prepare 1 mM of compound solution in this step. Then dilute compound with DMSO in 3-fold mode to obtain different concentrations. Mark as source plate. (2) Add 100 μL of 100% DMSO to column 1 and column 12 for background control and no compound high control respectively.
Transfer 2 μL of each well from the 96-well source plate to a 96-well assay plate.
• (3) Enzyme Reaction • Prepare 2× enzyme solution. Add IDO-1 in assay buffer. • Prepare 2× substrate solution. Add L-tryptophan, ascorbate, methylene blue, catalase in the assay buffer. • Assay plate already contains 2 μL of compound in 100% DMSO. • Transfer 2× enzyme solution to the assay plate. Add 100 μL of 2× enzyme solution to each well of the 96-well assay plate. • Incubate at room temperature for 10 min. • Transfer […] to each well of the 96-well assay plate. • Read OD321 kinetically by Spectramax (Molecular Devices, LLC, San Jose, CA, USA). • (4) Curve Fitting • Copy data from Spectramax program. Percent inhibition = (max-conversion)/(max − min) × 100. “max” stands for high control; “min” stands for low control. • Fit the data in XL-Fit to obtain IC50 values. Equation used is: Y = Bottom + (Top − Bottom)/(1 + 10^((LogIC50 − X) × Hill Slope)

HDAC1 = target: T2, HDAC1 (Homo sapiens, UniProt Q13547); assay: HDAC enzymatic assay; assay type: biochemical; conditions: mean ± SD of at least two independent assays
T2 construct: purchased BPS Bioscience Inc. 50051
Experimental: • (1) Prepare 1× assay buffer (modified Tris Buffer). • (2) Compound serial dilution: Transfer compounds to assay plate by Echo in 100% DMSO. The final fraction of DMSO is 1%. • (3) Prepare enzyme solution in 1× assay buffer. • (4) Add trypsin and Ac-peptide substrate in 1× assay buffer to make the substrate solution. • (5) Transfer 15 μL of enzyme solution to assay plate or for low control transfer 15 μL of 1× assay buffer. • (6) Incubate at room temperature for 15 min. • (7) Add 10 μL of substrate solution to each well to start reaction. • (8) Incubate at room temperature for 60 min. • (9) Read the plate on Synergy MX with excitation at 355 nm and emission at 460 nm. • (10) Curve fitting: Fit the data in Excel to obtain inhibition values using Equation (1).
Inh% = (Max − Signal)/(Max − Min) × 100(1)
Fit the data in XL-Fit to obtain IC50 values using Equation (2); Y = Bottom + (Top − Bottom)/(1 + 10^((LogIC50 − X) × Hill Slope))(2)
Y is %inhibition and X is compound concentration.

A549 cell line = assay: Anti-proliferation assay in A549 cell line (CellTiter-Glo); assay type: cell-based; conditions: Homo sapiens; A549 cells, 48 h, CTG assay
Experimental: Cell viability was measured by the CellTiter-Glo Luminescent (CTG) assay. A549 cells (ATCC, Cat. No.CCL-185) were seeded (2000 cells/well) in 96-well plates and cells were left to incubate at 37 °C for 24 h. After 24 h, prepare compounds with 5-fold dilution in DMSO to the compound plate (200-fold of the final concentration) and transfer 5 μL from the compound plate to 95 μL intermediate medium in the intermediate plate (10-fold of the final concentration). Then transfer 10 μL from the intermediate plate to the cell plates. The final DMSO is 0.5%. After continuing to incubate for 48 h, add 50 μL CTG reagent to each well and read luminescence according to CTG product manual.

T1 sequence (P14902 whole entry): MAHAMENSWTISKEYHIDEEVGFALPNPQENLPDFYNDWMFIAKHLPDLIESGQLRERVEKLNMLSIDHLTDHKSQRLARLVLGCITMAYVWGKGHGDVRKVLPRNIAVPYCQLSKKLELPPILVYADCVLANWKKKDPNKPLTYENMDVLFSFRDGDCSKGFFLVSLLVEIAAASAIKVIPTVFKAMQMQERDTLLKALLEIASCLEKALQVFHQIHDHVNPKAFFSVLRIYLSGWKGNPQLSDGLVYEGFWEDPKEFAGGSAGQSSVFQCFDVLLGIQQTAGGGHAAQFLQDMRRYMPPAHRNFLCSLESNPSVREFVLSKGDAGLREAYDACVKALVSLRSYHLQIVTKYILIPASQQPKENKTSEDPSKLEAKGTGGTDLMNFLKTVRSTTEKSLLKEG
T2 sequence (Q13547 whole entry): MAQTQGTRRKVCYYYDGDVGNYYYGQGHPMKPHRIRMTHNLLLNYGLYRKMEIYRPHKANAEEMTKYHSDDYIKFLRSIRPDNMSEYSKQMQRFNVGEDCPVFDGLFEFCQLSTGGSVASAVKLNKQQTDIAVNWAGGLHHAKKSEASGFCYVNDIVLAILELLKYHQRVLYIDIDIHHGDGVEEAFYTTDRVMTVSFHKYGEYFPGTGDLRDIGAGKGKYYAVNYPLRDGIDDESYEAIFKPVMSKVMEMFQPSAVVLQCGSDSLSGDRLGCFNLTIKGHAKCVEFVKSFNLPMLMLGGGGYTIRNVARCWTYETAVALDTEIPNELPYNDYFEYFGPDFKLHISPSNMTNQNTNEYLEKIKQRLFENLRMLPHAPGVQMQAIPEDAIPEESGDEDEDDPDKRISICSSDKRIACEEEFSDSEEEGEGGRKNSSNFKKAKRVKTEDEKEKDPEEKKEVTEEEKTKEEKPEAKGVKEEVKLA

Row | Compound | inhibition at 10 µM (IDO1) [%] | IC50 (IDO1) [µM] | IC50 (HDAC1) [µM] | IC50 (A549 cell line) [µM]
1 | Cc1ccc2c(c1CCC(=O)NCCCC(=O)Nc1ccccc1N)C(=O)C(=O)C(C(C)C)=C2 [Compound 33b, N-(2-Aminophenyl)-4-(3-(6-isopropyl-2-methyl-7,8-dioxo-7,8-dihydronaphthalen-1-yl)propanamido)-butanamide] | 80 | 0.58 ± 0.11 | 34.9 ± 0.75 | 19.1
2 | Cc1ccc2c(c1CCC(=O)NCCCCC(=O)Nc1ccccc1N)C(=O)C(=O)C(C(C)C)=C2 [Compound 33c, N-(2-Aminophenyl)-5-(3-(6-isopropyl-2-methyl-7,8-dioxo-7,8-dihydronaphthalen-1-yl)propanamido)-pentanamide] | 90 | 0.55 ± 0.02 | 39.5 ± 0.74 | > 20
3 | Cc1ccc2c(c1CCC(=O)NCCCCCC(=O)Nc1ccccc1N)C(=O)C(=O)C(C(C)C)=C2 [Compound 33d, N-(2-Aminophenyl)-6-(3-(6-isopropyl-2-methyl-7,8-dioxo-7,8-dihydronaphthalen-1-yl)propanamido) hexanamide] | 82 | 0.71 ± 0.03 | 0.46 ± 0.07 | > 20
